Earlier results, collected in patent US10555523B2, “Self indicating antimicrobial chemistry” (ECOLAB USA INC, priority 2015, dated 2020).

System: microorganisms

Structure (SMILES): CC(=O)OO [Peracetic acid]
- concentration needed for biocidal activity: greater than 80 part per million
